Measurements reported in the NIST ThermoML archive (doi:10.1021/acs.jced.7b00321).

Test: xn = mol fraction of the nth substance listed
Conditions: 101 kPa, Liquid; for viscosity: Capillary tube (Ostwald / Ubbelohde) method; for mass density: Vibrating tube method

CC(O)CN (stereo not drawn) [1-amino-2-propanol] + CCO
Conditions | mass density, 293.15 K [kg/m3] | mass density, 303.15 K [kg/m3] | mass density, 313.15 K [kg/m3] | mass density, 323.15 K [kg/m3] | viscosity, 293.15 K [mPa·s] | viscosity, 303.15 K [mPa·s] | viscosity, 313.15 K [mPa·s] | viscosity, 323.15 K [mPa·s]
x1 = 0.1009 | 815.54 | 807.78 | 798.04 | 790.57 | 1.69 | 1.35 | 1.1 | 0.9
x1 = 0.2 | 839.35 | 830.91 | 821.03 | 813.16 | 2.38 | 1.83 | 1.45 | 1.16
x1 = 0.3015 | 860.99 | 852.05 | 842.37 | 834.09 | 3.39 | 2.51 | 1.91 | 1.49
x1 = 0.3999 | 879.64 | 870.63 | 860.91 | 852.56 | 4.74 | 3.38 | 2.49 | 1.89
x1 = 0.4999 | 896.77 | 887.58 | 878.08 | 869.65 | 6.61 | 4.53 | 3.23 | 2.39
x1 = 0.5992 | 912.21 | 903.08 | 893.58 | 885.11 | 9.15 | 6.04 | 4.17 | 3.01
x1 = 0.6996 | 926.22 | 917.08 | 907.84 | 899.63 | 12.64 | 8.01 | 5.35 | 3.76
x1 = 0.7998 | 938.83 | 929.86 | 921.21 | 912.9 | 17.3 | 10.53 | 6.84 | 4.7
x1 = 0.8995 | 950.36 | 941.55 | 933.29 | 924.97 | 23.42 | 13.8 | 8.64 | 5.75

NCCCO [3-amino-1-propanol] + CCO
Conditions | mass density, 293.15 K [kg/m3] | mass density, 303.15 K [kg/m3] | mass density, 313.15 K [kg/m3] | mass density, 323.15 K [kg/m3] | viscosity, 293.15 K [mPa·s] | viscosity, 303.15 K [mPa·s] | viscosity, 313.15 K [mPa·s] | viscosity, 323.15 K [mPa·s]
x1 = 0.101 | 820.04 | 812.33 | 802.78 | 795.11 | 1.77 | 1.41 | 1.18 | 0.97
x1 = 0.2008 | 847.98 | 839.91 | 830.23 | 822.21 | 2.7 | 2.05 | 1.63 | 1.32
x1 = 0.3001 | 871.99 | 863.77 | 854.17 | 846.08 | 4.06 | 2.97 | 2.29 | 1.79
x1 = 0.4006 | 894.28 | 885.95 | 876.32 | 867.97 | 6.22 | 4.43 | 3.25 | 2.49
x1 = 0.4999 | 914.13 | 905.74 | 896.28 | 887.91 | 9.34 | 6.31 | 4.53 | 3.33
x1 = 0.5994 | 932.46 | 923.63 | 914.45 | 906.05 | 13.88 | 8.89 | 6.17 | 4.35
x1 = 0.6993 | 948.72 | 940.08 | 931.32 | 922.79 | 19.55 | 12.09 | 8.08 | 5.52
x1 = 0.7999 | 963.35 | 954.73 | 946.49 | 938.29 | 26.29 | 15.91 | 10.18 | 6.82
x1 = 0.8998 | 975.98 | 967.76 | 959.83 | 951.35 | 32.9 | 19.96 | 12.86 | 8.29

NCCNCCO [N-(2-aminoethyl)ethanolamine] + CCO
Conditions | mass density, 293.15 K [kg/m3] | mass density, 303.15 K [kg/m3] | mass density, 313.15 K [kg/m3] | mass density, 323.15 K [kg/m3] | viscosity, 293.15 K [mPa·s] | viscosity, 303.15 K [mPa·s] | viscosity, 313.15 K [mPa·s] | viscosity, 323.15 K [mPa·s]
x1 = 0.1003 | 836.01 | 827.72 | 817.72 | 810.06 | 2.27 | 1.78 | 1.41 | 1.13
x1 = 0.2 | 876.03 | 866.47 | 856.04 | 847.84 | 4.21 | 3.09 | 2.35 | 1.79
x1 = 0.3 | 908.63 | 898.53 | 888.11 | 880.03 | 8.22 | 5.37 | 3.76 | 2.74
x1 = 0.4 | 935.65 | 925.07 | 915.04 | 906.65 | 14.62 | 9.08 | 6.08 | 4.22
x1 = 0.4997 | 957.92 | 947.38 | 937.71 | 929.72 | 24.18 | 14.41 | 9.37 | 6.19
x1 = 0.5996 | 976.58 | 966.68 | 957.44 | 949.14 | 36.92 | 21.51 | 13.45 | 8.75
x1 = 0.6992 | 992.84 | 983.3 | 974.42 | 966.36 | 55.46 | 31.16 | 18.74 | 11.65
x1 = 0.7994 | 1007.09 | 997.81 | 989.49 | 981.48 | 78.97 | 42.47 | 24.16 | 14.94
x1 = 0.9007 | 1019.25 | 1010.53 | 1002.88 | 995.08 | 107.09 | 56.14 | 31.76 | 18.8

NCCNCCN [di(2-aminoethyl)amine] + CCO
Conditions | mass density, 293.15 K [kg/m3] | mass density, 303.15 K [kg/m3] | mass density, 313.15 K [kg/m3] | mass density, 323.15 K [kg/m3] | viscosity, 293.15 K [mPa·s] | viscosity, 303.15 K [mPa·s] | viscosity, 313.15 K [mPa·s] | viscosity, 323.15 K [mPa·s]
x1 = 0.1 | 831.18 | 820.88 | 809.43 | 800.56 | 2.38 | 1.82 | 1.43 | 1.16
x1 = 0.1999 | 864.18 | 852.13 | 839.06 | 828.38 | 3.4 | 2.52 | 1.95 | 1.54
x1 = 0.3001 | 888.74 | 875.32 | 862.26 | 849.95 | 4.31 | 3.11 | 2.33 | 1.81
x1 = 0.4 | 905.98 | 892.48 | 879.84 | 866.96 | 5.06 | 3.57 | 2.64 | 2.03
x1 = 0.4998 | 918.77 | 905.55 | 893.25 | 881.28 | 5.59 | 3.93 | 2.89 | 2.2
x1 = 0.6001 | 928.75 | 915.84 | 904.57 | 892.92 | 6.05 | 4.19 | 3.06 | 2.31
x1 = 0.6992 | 936.55 | 924.86 | 913.73 | 903.03 | 6.39 | 4.38 | 3.15 | 2.37
x1 = 0.7998 | 943.08 | 931.95 | 921.49 | 911.41 | 6.61 | 4.53 | 3.26 | 2.45
x1 = 0.9007 | 948.15 | 937.76 | 928.32 | 918.94 | 6.8 | 4.65 | 3.31 | 2.5
